Experimental data reported in patent US20110237658A1, “COMPOUND AND METHOD FOR THE TREATMENT OF PAIN” (KRISHANI BIOSCIENCES (P) LTD, priority 2010, published 2011).

System: spinal nerve ligation model for neuropathic pain in rats
Assay: Spinal nerve ligation (Chung) model of neuropathic pain, Von Frey test
Format: in vivo
Conditions: 150 mg/kg IP once daily from study day 14 to 21; 2 hours post-treatment on study days 14 and 21; male SD rats
Description: Experimental animals were male SD rats with a starting weight of 230-250 grams. Total number of animals were n=90 for surgery and n=60 after selection. The animals were caged in groups of 3 in a temperature and humidity controlled area. They were maintained on a 12 hr light/dark cycle and had ad libitum access to food and water.
Neuropathic pain inducement was done by following principles of Chung induced model. The SD rats were anesthetized using ketamine/xylazine sodium. The rats were shaved and placed in prone position for surgery. The L5-L6 spinal nerves were surgically litigated. The rats were returned to their cages for recuperation and recovery under comfortable warm conditions using heat lamps.
After seven days of surgery a pre selection was performed. Animals that indicate signs of post operative pain were to be selected to proceed. Pain is detected by observing when one or more of the criteria are met as follows. Licking of the operated paw, accompanied by gentle biting or pulling on the nails with the mouth; placing the leg in the air; bearing weight on the side contra-lateral to the nerve injury; deformities of the hind paw and abnormal posture and walking; weakness of the left hind paw. […] However, the animal must be able to move its leg to ensure that the L4 spinal nerve is intact. If the animal cannot move its leg, it was excluded from the study. […]

With `CC(OC(=O)CCCC[C@@H]1CCSS1)OC(=O)NC(C)C(C)COC(=O)c1ccccc1` (stereo partly shown) [final compound of formula 1] the “efficacy as reflected in the parameters of mechanical allodynia (Von Frey)” value was “effective”.
